The values below come from US9656962B2, “Ring-contracted morphinans and the use thereof” (Purdue Pharma L.P., priority 2013, dated 2017).

SMILES strings stand for the structures.

One may read the Emax as the maximal effect, on the per cent scale that the assay sets. One may read the EC50 as the concentration needed to bring the measured effect to its halfway point. A low value points to a more potent agent.

What all share (format): biochemical
Assay [1] addresses T1, μ-opioid receptor (Homo sapiens (Human), UniProt P35372). In words: μ-opioid receptor [35S]GTPγS functional assay, HEK-293 or CHO cells (Table 4). The note with it: for Emax: relative to DAMGO; for EC50: μ GTP. On the procedure: (§1) μ-Opioid Receptor Functional Assay Procedures: [^35S]GTPγS functional assays were conducted using freshly thawed μ-receptor membranes prepared in-house from a cell line expressing recombinant μ opioid receptor in a HEK-293, CHO or U-2 OS cell background, or purchased from a commercial source (Perkin Elmer, Shelton, Conn.; or DiscovRx, Fremont, Calif.). Assay reactions were prepared by sequentially adding the following reagents to binding buffer (100 mM NaCl, 10 mM MgCl2, 20 mM HEPES, pH 7.4) on ice (final concentrations indicated): membrane protein (0.026 mg/mL), saponin ([…]), GDP ([…]) and [^35S]GTPγS (0.20 nM; Perkin Elmer, Shelton, Conn.). The prepared membrane solution (190 μl/well) was transferred to 96-shallow well polypropylene plates containing 10 μl of 20× concentrated stock solutions of the agonist [D-Ala^2, N-methyl-Phe^4 Gly-ol^5]-enkephalin (DAMGO) prepared in dimethyl sulfoxide (DMSO). Plates were incubated for 30 min at about 25° C. with shaking Reactions were terminated by rapid filtration onto 96-well Unifilter GF/B filter plates (Perkin Elmer, Shelton, Conn.) using a 96-well tissue harvester (Perkin Elmer, Shelton, Conn.) followed by three filtration washes with 200 μl of ice-cold wash buffer (10 mM NaH2PO4, 10 mM Na2HPO4, pH 7.4). Filter plates were subsequently dried at 50° C. for 2-3 hours. BetaScint scintillation cocktail (Perkin Elmer, Shelton, Conn.) was added (50 μl/well) and plates were counted using a Packard Top-Count for 1 min/well. Data were analyzed using the sigmoidal dose-response curve fitting functions in GraphPad PRISM v. 3.0, or an in-house function for non-linear, sigmoidal dose-response curve-fitting. [^35S]GTPγS functional assays can also be conducted using freshly thawed μ-receptor membranes prepared from a cell line expressing recombinant μ opioid receptor in a CHO-K1 cell background.
(§2) μ GTP Emax (%) is the maximal effect elicited by a compound relative to the effect elicited by DAMGO, a standard μ agonist.
In TABLE 4, activity response of certain Compounds of the Invention to the μ- and κ-opioid receptors was determined as described above for functional assays using HEK-293 or CHO cells.
(Binding of GTPγS marks nucleotide exchange on a G protein.)

Assay [2] concerns the target T1, μ-opioid receptor. In words: μ-opioid receptor [35S]GTPγS functional assay, U-2 OS cells (Table 5). The note with it: for Emax: relative to DAMGO; for EC50: μ GTP. As to the method: as §1, §2
Assay [3] concerns the target κ-opioid receptor (Homo sapiens (Human), UniProt P41145). In words: κ-opioid receptor [35S]GTPγS functional assay, U-2 OS cells (Table 5). The note with it: for Emax: relative to U69,593; for EC50: κ GTP. On the procedure: κ-Opioid Receptor Functional Assay Procedures: Functional [^35S]GTPγS binding assays were conducted as follows. κ opioid receptor membrane solution was prepared by sequentially adding final concentrations of 0.026 μg/μl κ membrane protein (in-house), 10 μg/mL saponin, 3 μM GDP and 0.20 nM [^35S]GTPγS to binding buffer (100 mM NaCl, 10 mM MgCl2, 20 mM HEPES, pH 7.4) on ice. The prepared membrane solution (190 μl/well) was transferred to 96-shallow well polypropylene plates containing 10 μl of 20× concentrated stock solutions of agonist prepared in DMSO. Plates were incubated for 30 min at a temperature of about 25° C. with shaking. Reactions were terminated by rapid filtration onto 96-well Unifilter GF/B filter plates (Perkin Elmer, Shelton, Conn.) using a 96-well tissue harvester (Packard) and followed by three filtration washes with 200 μl ice-cold binding buffer (10 mM NaH2PO4, 10 mM Na2HPO4, pH 7.4). Filter plates were subsequently dried at 50° C. for 2-3 hours. Fifty μl/well scintillation cocktail (Perkin Elmer, Shelton, Conn.) was added and plates were counted in a Packard Top-Count for 1 min/well.
κ GTP Emax (%) is the maximal effect elicited by a compound relative to the effect elicited by U69,593.
The following TABLE 5 provides results on the activity response of certain Compounds of the Invention at the μ- and κ-opioid receptors determined as described above using U-2 OS cells.

`O=C(N[C@H]1CC23CCN(CC4CC4)[C@H](Cc4ccc(O)cc42)[C@]3(O)C1)c1ccccc1` (stereo in doubt) [Compound 79, N-((2S,3aS,4R,9bS)-12-(cyclopropyl-methyl)-3a,8-dihydroxy-1,2,3,3a,4,5-hexahydro-4,9b-(epiminoethano)cyclo-penta[a]naphthalen-2-yl)benzamide]: the Emax in assay [1] was -1%. The EC50 in assay [1] (bound given in μM) was more than 20 µM.

Take `Oc1ccc2c(c1)C13CCN(CC4CC4)[C@H](C2)[C@]1(O)C[C@H](NCc1ccccc1)C3` (stereo in doubt) [Compound 80, (2R,3aS,4R,9bS)-2-(benzylamino)-12-(cyclopropylmethyl)-2,3,4,5-tetrahydro-4,9b-(epiminoethano)-cyclopenta-[a]naphthalene-3a,8(1H)-diol]: the Emax in assay [1] stood at 1%. Moreover, the EC50 in assay [1] (bound given in μM) was more than 20 µM.

In the case of `Oc1ccc2c(c1)C13CCN(CC4CC4)[C@H](C2)[C@]1(O)C[C@H](N(Cc1ccccc1)Cc1ccccc1)C3` (stereo in doubt) [Compound 81, (2R,3aS,4R,9bS)-12-(cyclopropyl-methyl)-2-(dibenzylamino)-2,3,4,5-tetrahydro-4,9b-(epiminoethano)-cyclopenta-[a]naphthalene-3a,8(1H)-diol], the Emax in assay [1] was 19 ± 1.53%. In addition, the EC50 in assay [1] (bound given in μM) is more than 20 µM.

With `O=C(N[C@@H]1CC23CCN(CC4CC4)[C@H](Cc4ccc(O)cc42)[C@]3(O)C1)c1ccccc1` (stereo in doubt) [Compound 82, N-((2R,3aS,4R,9bS)-12-(cyclopropyl-methyl)-3a,8-dihydroxy-1,2,3,3a,4,5-hexahydro-4,9b-(epiminoethano)cyclo-penta[a]naphthalen-2-yl)benzamide], the Emax in assay [1] is 1%. In addition, in assay [1] (bound given in μM), the EC50 is more than 20 µM.

Regarding `O=C(Nc1ccccc1)N[C@@H]1CC23CCN(CC4CC4)[C@H](Cc4ccc(O)cc42)[C@]3(O)C1` (stereo in doubt) [Compound 83, 1-((2R,3aS,4R,9bS)-12-(cyclopropyl-methyl)-3a,8-dihydroxy-1,2,3,3a,4,5-hexahydro-4,9b-(epiminoethano)cyclo-penta[a]naphthalen-2-yl)-3-phenylurea], the Emax in assay [1] stood at 0%. Besides, the EC50 in assay [1] (bound given in μM) was more than 20 µM.

In the case of `CN(CC(=O)O)C(=O)[C@@H]1C[C@]23CCN(CC4CC4)[C@H](Cc4ccc(O)cc42)[C@]3(O)C1` [Compound 66, 2-((2R,3aS,4R,9bS)-12-(cyclopropyl-methyl)-3a,8-dihydroxy-N-methyl-1,2,3,3a,4,5-hexahydro-4,9b-(epiminoethano)cyclopenta[a]naphthalene-2-carboxamido)acetic acid], in assay [2], the Emax is 15.5 ± 1.5% and the EC50 worked out at 0.029 ± 0.00429 µM. In addition, in assay [3], the Emax amounted to 77.3 ± 0.88% and the EC50 came to 168 ± 8.15 nM.

For the compound `NC(=O)[C@@H]1C[C@]23CCN(CC(F)(F)F)[C@H](Cc4ccc(O)cc42)[C@]3(O)C1` [Compound 75, (2R,3aS,4R,9bS)-3a,8-dihydroxy-12-(2,2,2-tritluoroethyl)-1,2,3,3a,4,5-hexahydro-4,9b-(epiminoethano)cyclo-penta[a]naphthalene-2-carboxamide], the Emax in assay [2] came out at 2%; in assay [3], 69 ± 6.03%. Also, the concentration for a half-maximal effect (EC50) in assay [2] (bound given in μM) was more than 20 µM; in assay [3] it was 1260 ± 74.6 nM.

Consider `NC(=O)[C@H]1C[C@]23CCN(CC(F)(F)F)[C@H](Cc4ccc(O)cc42)[C@]3(O)C1` [Compound 76, (2S,3aS,4R,9bS)-3a,8-dihydroxy-12-(2,2,2-trifluoroethyl)-1,2,3,3a,4,5-hexahydro-4,9b-(epiminoethano)cyclo-penta[a]naphthalene-2-carboxamide], for which the values for the Emax in assay [2] and in assay [3] were 2% and 81 ± 6.66%, respectively. The EC50 in assay [2] (bound given in μM) was more than 20 µM; in assay [3] it was 923 ± 31.9 nM.

Turning to `O=C(NCCN1CCOCC1)[C@@H]1C[C@]23CCN(CC4CC4)[C@H](Cc4ccc(O)cc42)[C@]3(O)C1` [Compound 84, (2R,3aS,4R,9bS)-12-(cyclopropyl-methyl)-3a,8-dihydroxy-N-(2-morpholinoethyl)-1,2,3,3a,4,5-hexahydro-4,9b-(epimino-ethano)cyclopenta[a]naphthalene-2-carboxamide], in assay [1], the Emax came out at 19.7 ± 1.67% and the EC50 amounted to 0.0717 ± 0.0237 µM.
